Experimental data: US20260137693A1, “CANCER TREATMENTS USING MTA-COOPERATIVE PRMT5 INHIBITORS AND MAT2A INHIBITORS” (AMGEN INC., priority 2022, published 2026)

Assays:
[1] = tested on: NSCLC cancer cell line CALU1; assay: Combination of Compound A and Compound B, CellTiter-Glo cell viability, CALU1 (Example 2); type: cell-based; conditions: CALU1, 6 days, up to 10 μM
Description: NSCLC cancer cell line CALU1 was treated with the combination of Compound A and Compound B for 6 days. Top concentration of Compound A tested was 10 μM with a total of nine 1.9-fold dilutions and DMSO-only control. Top concentration of Compound B tested was 10 μM with a total of five 2-fold dilutions and DMSO-only control. Cell viability was measured by the CellTiter-Glo Luminescence assay. Raw luminescent values were converted to POC with the following equation: POC=100*(Treatment/Vehicle). FIG. 1 represents 1 of the 2 studies conducted. N=2 technical replicates. Mean and standard deviation graphed.

[2] = tested on: Pancreatic cancer cell line BxPC3; assay: Combination of Compound A and Compound B, CellTiter-Glo cell viability, BxPC3 (Example 2); type: cell-based; conditions: BxPC3, 6 days, up to 10 μM
Description: Pancreatic cancer cell line BxPC3 was treated with the combination of Compound A and Compound B for 6 days. Top concentration of Compound A tested was 2 μM with a total of nine 1.9-fold dilutions and DMSO-only control. Top concentration of Compound B tested was 10 μM with a total of five 2-fold dilutions and DMSO-only control. Cell viability was measured by the CellTiter-Glo Luminescence assay. Raw luminescent values were converted to POC with the following equation: POC=100*(Treatment/Vehicle). FIG. 2 represents 1 of the 3 studies conducted. N=2 technical replicates. Mean and standard deviation graphed.

Nc1nc(=O)n(-c2ccccc2Cl)c2nc(C(F)(F)F)ccc12 [Compound B, 4-amino-1-(2-chlorophenyl)-7-(trifluoromethyl)pyrido[2,3-d]pyrimidin-2(1H)-one]
sensitivity of the model to single agent [1]: insensitive | sensitivity of the model to single agent [2]: insensitive
